In data set [1] the target is T1, sigma-1 receptor (σ1R) (Cavia porcellus, UniProt Q60492).
T1 construct: The thawed membrane preparation of the guinea pig brain cortex was incubated; from tissue; host or cells: male Dunkin-Hartley guinea pig brain cortex membranes
Nature of the data set: σ1R radioligand binding ([3H](+)-pentazocine). Set-up: species or system guinea pig. The conditions noted are these: read-out: σ1R Ki [nM] x̄ [CI 95%]; mean [CI 95%].

Data set [2] has as its system sigma-1 receptor (σ1R). Nature of the data set: σ1R radioligand binding ([3H](+)-pentazocine). Set-up: species or system guinea pig. The following applies: ratio of σ2R Ki to σ1R Ki.
The next data set has as its target T2, sigma-2 receptor (σ2R) (Rattus norvegicus, UniProt Q5U3Y7).
T2 construct: The thawed membrane preparation of rat liver was incubated; from tissue; host or cells: Sprague-Dawley rat liver membranes
T2 sequence (Q5U3Y7 1-176): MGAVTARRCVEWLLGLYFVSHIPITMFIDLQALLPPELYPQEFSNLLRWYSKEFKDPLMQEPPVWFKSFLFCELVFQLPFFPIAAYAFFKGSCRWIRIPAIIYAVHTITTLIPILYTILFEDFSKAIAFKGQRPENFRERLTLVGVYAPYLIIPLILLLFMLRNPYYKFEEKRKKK
The experiment in a line: σ2R radioligand binding ([3H]DTG). The conditions noted are these: read-out: σ2R Ki [nM] x̄ [CI 95%]; mean [CI 95%].

Data set [3] in a line: spontaneous locomotor activity. The class given is in vivo, mice. The following applies: mouse, in vivo, ip; estimated; read-out: ED50, decrease of spontaneous locomotor activity. How it is done:
(§1) The high sedative activity of analgesics is considered an undesirable property, which may lead to an incorrect or ambiguous interpretation of the in vivo results. Moreover, it may limit the potential clinical application of new drug candidates.
(§2) This test was carried out according to the procedure described elsewhere.[84] The animals were injected (i.p.) with 12 at doses of 5, 15, and 30 mg/kg and placed in the activity cages individually (30 min before the experiment). The number of light-beam crossings was counted in each group during the next 30 min in 10 min intervals.

Data set [4] deals with mice. The experiment in a line: spontaneous locomotor activity. The class given is in vivo. As for the experimental part:
as §1, §2

The subject of data set [5] is mice. The experiment in a line: formalin test. The class given is in vivo. The conditions noted are these: Mus musculus, ip. The source says: The formalin test is one of the most useful screening models for testing potentially clinically relevant antinociceptive molecules because of its ease of administration, standardization, and validation with reference drugs.[50] The subcutaneous injection of formalin results in a focal injury that stimulates and then damages sensory endings. Two distinct phases of nociceptive response are associated with the immediate activation of nociceptors and sensitization of spinal reflex circuits during phase I and II responses, respectively.[51]
The procedure used was essentially the same as that described previously.[86],[87] Briefly, 20 μL of 1.5% formalin solution was injected intraplantarly (i.pl.) into the mice right hind paw using a 26-gauge needle. […] The total time (in seconds) spent on licking the injected paw during periods of 0–5 min (early phase, neurogenic) and 15–30 min (late phase, inflammatory) was measured and was considered as an indicator of nociceptive behavior. Before formalin injection, different groups of mice were treated i.p. with the vehicle (10 mL/kg, negative control) and the varying doses of 12 (5, 10, 15, and 30 mg/kg).

Data set [6] relates to CCI-exposed mice. Nature of the data set: chronic constriction injury (CCI) of the sciatic nerve, von Frey test. The class given is in vivo, male albino Swiss CD-1 mice. How it is done: (§3) Behavioral assessment of 12 was performed 14 days after the sciatic nerve injury. Mice were randomly assigned to four treatment groups: vehicle-treated (i.p.) and 12-treated (5, 10, and 15 mg/kg, i.p.). Baseline measurements (basal) for all tests were performed before compound injections, and the results are presented as percentages of the maximal possible effect (% MPE). We observed a significant effect of the tested compound in the von Frey test at all tested time points (30 min: F(3, 26) = 12.38, p < 0,0001; 90 min: F(3, 26) = 12.65, p < 0.0001; 180 min: F(3, 26) = 6.464, p = 0.0020). […] We also observed a significant effect of treatment on the contralateral paw 90 min after injection (F(3, 26) = 5.741, p = 0.0037).
(§4) The model of chronic constriction injury (CCI) to the sciatic nerve was established according to Bennett and Xie.[94] The surgical method was performed under isoflurate anesthesia (2% isoflurane in 100% oxygen with a flow of 1.5 L/min).[95] Below the right hipbone, a small incision was performed, and three ligatures (4/0 silk) around the sciatic nerve were made (with 1 mm spacing) until a brief twitch in the respective hind limb was observed. All mice that underwent the CCI procedure developed hypersensitivity to mechanical and thermal stimuli. Behavioral tests were performed at day 14 after injury. Compound 12 was dissolved in 10% DMSO/10% (2-hydroxypropyl)-β-cyclodextrin/water and administered i.p. at doses 5, 10, and 15 mg/kg (injection volume 10 mL/kg of body weight). The control group received the vehicle (10% DMSO/10% (2-hydroxypropyl)-β-cyclodextrin/water).
Behavioral experiments were performed between 8:00 a.m. and 2:00 p.m. Across the experiments, we compared vehicle-treated mice with 12-treated animals. Experiments were performed 30, 90, and 180 min (von Frey test); 35, 95, and 185 min (cold plate test); and 40, 100, and 190 min (tail flick test) after the vehicle or 12 administration.
The von Frey test was used to measure mechanical hypersensitivity as described in a previous publication.[95] The animals were placed in cages with a wire net floor. The reaction (paw withdrawal, shaking, or licking) of the ipsilateral (Figure 15) and contralateral (Figure S33) paw of CCI-exposed mice to the mechanical stimulator (calibrated nylon monofilaments (0.6–6 g; Stoelting)) in serial increments was observed.

The test system of data set [7] is CCI-exposed mice. The experiment in a line: CCI of the sciatic nerve, cold plate test. The class given is in vivo, male albino Swiss CD-1 mice. How it is done:
as §3, §4
Behavioral experiments were performed between 8:00 a.m. and 2:00 p.m. Across the experiments, we compared vehicle-treated mice with 12-treated animals. […]
Sensitivity to noxious thermal stimuli was assessed with the cold plate test (Cold/Hot Plate Analgesia Meter, Columbus Instruments) as previously described.[95] […] The mice were placed on the cold plate, and the time until lifting of the injured paw was recorded.

The nature of data set [8]: serum metabolic stability.

Structures can show the parent of a compound that is named as a salt. Where two headings read alike, the source gives them in different places.

T1 sequence (Q60492 whole entry): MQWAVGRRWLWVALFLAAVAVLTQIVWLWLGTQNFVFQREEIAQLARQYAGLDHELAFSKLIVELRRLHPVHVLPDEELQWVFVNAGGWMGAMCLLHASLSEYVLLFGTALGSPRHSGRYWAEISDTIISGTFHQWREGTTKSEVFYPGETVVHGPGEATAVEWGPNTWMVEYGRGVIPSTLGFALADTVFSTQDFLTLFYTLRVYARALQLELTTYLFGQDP

For orientation: Ki means a measure of affinity in units of concentration, obtained from inhibition or displacement. Usually ED50 stands for the midpoint of the dose-response relation. As usually defined, the half-life is the time in which the quantity being followed falls by half. As for `N#Cc1ccc(-c2ccc(OCCCN3CCC(c4ccncc4)CC3)cc2)cc1` [Compound 12, 4′-(3-(4-(Pyridin-4-yl)piperidin-1-yl)propoxy)-[1,1′-biphenyl]-4-carbonitrile Oxalate], the Ki at sigma-1 receptor (σ1R) [1] stood at 4.5 nM; at sigma-2 receptor (σ2R), 10 nM. In addition, the σ2/σ1 ratio with sigma-1 receptor (σ1R) [2] came out at 2.2. The ED50 at 30 min in [3] was 22 mg/kg. Moreover, the “influence on spontaneous locomotor activity (sedative effect)” value is “decreased spontaneous locomotor activity, but the effect was not statistically significant” in the data set with mice [4] (15 mg/kg i.p.) and “significantly decreased locomotor activity” in the data set on mice [4] (30 mg/kg i.p.). The ED50 in the data set on mice [5] (0–5 min after formalin, read-out: ED50, formalin test phase I (acute phase)) was determined as 6.17 mg/kg; with mice [5] (15–30 min after formalin, read-out: ED50, formalin test phase II (late phase)) it was 12.3 mg/kg. The “effect on contralateral paw, von Frey test” value is “reduced the withdrawal threshold 30 and 180 min after injection, although this effect was not statistically significant” in the data set on CCI-exposed mice [6] (15 mg/kg, 30 and 180 min); “significant effect (p = 0.0056)” in the data set on CCI-exposed mice [6] (15 mg/kg, 90 min); “no effects of compound 12 (for doses 5 and 10 mg/kg) on tactile allodynia” in the data set on CCI-exposed mice [6] (5 and 10 mg/kg, all time points). Moreover, the “analgesic effect, von Frey test, ipsilateral paw” value with CCI-exposed mice [6] (90 and 180 min after i.p. injection) is “only at a dose of 10 mg/kg increased the withdrawal thresholds”; in the data set with CCI-exposed mice [6] (30 min after i.p. injection, 5, 10, 15 mg/kg, day 14 after CCI) it was “significant analgesic effects 30 min after injection of 5 (p < 0.0001) and 10 mg/kg (p = 0.0201)”. The “analgesic effect, cold plate test” value in the data set with CCI-exposed mice [7] (35 min after i.p. injection, 5, 10, 15 mg/kg) was “analgesic effects of 12 single injection were observed at 35 min for all tested doses”; with CCI-exposed mice [7] (95 min after i.p. injection, 5, 10, 15 mg/kg), “antihyperalgesic effect was also observed 95 min after injection”; in the data set with CCI-exposed mice [7] (185 min after i.p. injection) it was “significant only for doses 5 (p = 0.0482) and 10 mg/kg (p < 0.0001)”. Also, the serum stability assessment entry in data set [8] is listed as “moderately stable ligand”. Moreover, the half-life at 24 h in data set [8] (serum (made from plasma by clotting with calcium chloride)) was 7.7 ± 1.4 h.
